# Source: patent EP4778922A1, “BICYCLIC COMPOUND, AND PREPARATION METHOD THEREFOR AND PHARMACEUTICAL USE THEREOF” (Shanghai Jeyou Pharmaceutical Co., Ltd., priority 2023, dated 2025)
# Where two headings read alike, the source gives them in different places.
# Experiments:
# CYP1A2 = molecular target: T1, CYP1A2 (Homo sapiens, UniProt P05177); experiment: CYP inhibition assay in human liver microsomes; assay type: in vitro ADME; details: human liver microsomes, NADPH; read-out: CYPs 1A2 (IC50)
# T1 construct: co-incubated with human liver microsomes; from tissue; host or cells: human liver microsomes
# T1 sequence (P05177 1-516): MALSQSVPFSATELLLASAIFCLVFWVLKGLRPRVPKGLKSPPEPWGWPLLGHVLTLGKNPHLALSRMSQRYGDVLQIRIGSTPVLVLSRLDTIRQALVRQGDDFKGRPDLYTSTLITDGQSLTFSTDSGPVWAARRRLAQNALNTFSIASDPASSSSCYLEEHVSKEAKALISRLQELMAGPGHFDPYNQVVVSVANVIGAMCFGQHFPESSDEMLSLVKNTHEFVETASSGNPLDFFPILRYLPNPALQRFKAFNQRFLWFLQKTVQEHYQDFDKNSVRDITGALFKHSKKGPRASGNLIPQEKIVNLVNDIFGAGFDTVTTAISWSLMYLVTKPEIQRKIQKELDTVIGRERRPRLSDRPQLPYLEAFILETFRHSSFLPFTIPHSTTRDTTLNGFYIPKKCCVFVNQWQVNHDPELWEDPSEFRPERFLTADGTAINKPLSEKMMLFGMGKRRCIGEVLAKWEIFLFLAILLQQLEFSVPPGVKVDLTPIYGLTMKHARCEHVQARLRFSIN
# Protocol: (§1) Test Example 3: CYP Inhibition Assay
# (§2) An in vitro assay system was used to evaluate the effects of the compounds on the activities of several human liver microsomal cytochrome P450 (CYP) isozymes (CYP1A2, CYP2C9, CYP2D6, CYP3A4 (testosterone/midazolam), CYP2C19, and CYP2C8). Specific probe substrates for CYP450 isozymes were co-incubated with human liver microsomes and the compound at various concentrations (0, 0.0300, 0.100, 0.300, 1.00, 3.00, 10.0 µM). The reaction was initiated by adding the coenzyme NADPH. After the reaction was completed, the samples were processed, and the metabolites generated from the probe substrates were detected by liquid chromatography-tandem mass spectrometry (LC-MS/MS). Based on the resulting dose-response curves, the IC50 values of the test compounds for the probe substrate reactions catalyzed by each CYP isozyme were calculated.
# CYP2C8 = molecular target: T2, CYP2C8 (Homo sapiens, UniProt P10632); experiment: CYP inhibition assay in human liver microsomes; assay type: in vitro ADME; details: human liver microsomes, NADPH; read-out: CYPs 2C8 (IC50)
# T2 construct: co-incubated with human liver microsomes; from tissue; host or cells: human liver microsomes
# T2 sequence (P10632 1-490): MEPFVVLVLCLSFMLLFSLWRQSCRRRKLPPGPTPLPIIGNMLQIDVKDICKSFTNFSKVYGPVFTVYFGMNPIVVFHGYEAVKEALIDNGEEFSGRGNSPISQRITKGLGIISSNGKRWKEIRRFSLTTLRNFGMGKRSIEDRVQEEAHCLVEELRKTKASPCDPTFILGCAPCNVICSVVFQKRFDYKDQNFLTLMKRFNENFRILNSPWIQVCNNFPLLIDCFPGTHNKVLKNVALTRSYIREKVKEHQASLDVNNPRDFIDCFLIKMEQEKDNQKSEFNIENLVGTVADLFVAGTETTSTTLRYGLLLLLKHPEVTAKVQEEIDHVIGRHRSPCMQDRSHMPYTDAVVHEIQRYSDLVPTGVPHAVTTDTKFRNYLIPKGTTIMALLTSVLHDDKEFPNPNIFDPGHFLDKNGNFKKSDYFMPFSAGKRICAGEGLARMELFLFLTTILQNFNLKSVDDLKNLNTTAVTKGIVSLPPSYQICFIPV
# Protocol: as §1, §2
# [1] = molecular target: T3, CYP3A4 (testosterone/midazolam) (Homo sapiens, UniProt P08684); experiment: CYP inhibition assay in human liver microsomes; assay type: in vitro ADME
# T3 construct: co-incubated with human liver microsomes; from tissue; host or cells: human liver microsomes
# T3 sequence (P08684 whole entry): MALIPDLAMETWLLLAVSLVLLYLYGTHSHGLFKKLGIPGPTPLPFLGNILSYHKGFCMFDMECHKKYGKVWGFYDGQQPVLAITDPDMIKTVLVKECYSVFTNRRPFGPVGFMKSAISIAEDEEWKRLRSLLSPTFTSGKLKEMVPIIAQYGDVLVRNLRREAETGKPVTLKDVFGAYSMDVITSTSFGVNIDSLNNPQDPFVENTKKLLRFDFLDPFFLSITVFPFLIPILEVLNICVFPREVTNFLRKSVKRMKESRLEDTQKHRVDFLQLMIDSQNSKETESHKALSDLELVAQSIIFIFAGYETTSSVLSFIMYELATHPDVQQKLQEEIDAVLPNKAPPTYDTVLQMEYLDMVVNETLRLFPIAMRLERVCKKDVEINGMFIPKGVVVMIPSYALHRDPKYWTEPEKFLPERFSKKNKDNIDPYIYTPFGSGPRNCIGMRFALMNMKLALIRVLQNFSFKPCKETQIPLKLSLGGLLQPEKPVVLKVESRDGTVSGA
# Protocol: as §1, §2
# CYP2C19 = molecular target: T4, CYP2C19 (Homo sapiens, UniProt P33261); experiment: CYP inhibition assay in human liver microsomes; assay type: in vitro ADME; details: human liver microsomes, NADPH; read-out: CYPs 2C19 (IC50)
# T4 construct: co-incubated with human liver microsomes; from tissue; host or cells: human liver microsomes
# T4 sequence (P33261 whole entry): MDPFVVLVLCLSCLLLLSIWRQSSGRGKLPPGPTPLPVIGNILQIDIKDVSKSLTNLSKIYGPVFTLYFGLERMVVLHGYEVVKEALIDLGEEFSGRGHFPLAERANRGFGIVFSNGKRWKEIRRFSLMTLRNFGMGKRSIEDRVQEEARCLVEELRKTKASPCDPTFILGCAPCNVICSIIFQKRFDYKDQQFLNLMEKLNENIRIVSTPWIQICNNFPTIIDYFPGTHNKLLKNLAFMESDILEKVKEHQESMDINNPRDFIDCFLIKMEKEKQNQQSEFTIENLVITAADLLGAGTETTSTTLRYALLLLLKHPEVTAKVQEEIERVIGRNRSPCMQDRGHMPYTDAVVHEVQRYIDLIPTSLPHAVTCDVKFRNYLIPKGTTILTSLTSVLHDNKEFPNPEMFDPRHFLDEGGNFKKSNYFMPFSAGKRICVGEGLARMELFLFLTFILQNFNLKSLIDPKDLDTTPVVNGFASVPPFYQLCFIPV
# Protocol: as §1, §2
# CYP2D6 = molecular target: T5, CYP2D6 (Homo sapiens, UniProt P10635); experiment: CYP inhibition assay in human liver microsomes; assay type: in vitro ADME; details: human liver microsomes, NADPH; read-out: CYPs 2D6 (IC50)
# T5 construct: co-incubated with human liver microsomes; from tissue; host or cells: human liver microsomes
# T5 sequence (P10635 whole entry): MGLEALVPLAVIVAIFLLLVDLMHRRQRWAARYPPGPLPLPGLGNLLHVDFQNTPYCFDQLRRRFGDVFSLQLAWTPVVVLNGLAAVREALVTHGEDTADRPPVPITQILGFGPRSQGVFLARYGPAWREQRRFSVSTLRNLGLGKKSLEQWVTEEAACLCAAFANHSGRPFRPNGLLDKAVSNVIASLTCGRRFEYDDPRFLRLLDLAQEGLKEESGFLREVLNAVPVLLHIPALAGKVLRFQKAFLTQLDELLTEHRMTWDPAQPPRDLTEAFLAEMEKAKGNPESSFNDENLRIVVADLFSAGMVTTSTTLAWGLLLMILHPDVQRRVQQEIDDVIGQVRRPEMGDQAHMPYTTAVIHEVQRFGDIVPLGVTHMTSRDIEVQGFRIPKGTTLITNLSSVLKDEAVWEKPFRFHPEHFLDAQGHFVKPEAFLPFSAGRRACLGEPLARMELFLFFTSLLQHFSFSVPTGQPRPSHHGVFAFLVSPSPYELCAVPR
# Protocol: as §1, §2
# CYP2C9 = molecular target: T6, CYP2C9 (Homo sapiens, UniProt P11712); experiment: CYP inhibition assay in human liver microsomes; assay type: in vitro ADME; details: human liver microsomes, NADPH; read-out: CYPs 2C9 (IC50)
# T6 construct: co-incubated with human liver microsomes; from tissue; host or cells: human liver microsomes
# T6 sequence (P11712 whole entry): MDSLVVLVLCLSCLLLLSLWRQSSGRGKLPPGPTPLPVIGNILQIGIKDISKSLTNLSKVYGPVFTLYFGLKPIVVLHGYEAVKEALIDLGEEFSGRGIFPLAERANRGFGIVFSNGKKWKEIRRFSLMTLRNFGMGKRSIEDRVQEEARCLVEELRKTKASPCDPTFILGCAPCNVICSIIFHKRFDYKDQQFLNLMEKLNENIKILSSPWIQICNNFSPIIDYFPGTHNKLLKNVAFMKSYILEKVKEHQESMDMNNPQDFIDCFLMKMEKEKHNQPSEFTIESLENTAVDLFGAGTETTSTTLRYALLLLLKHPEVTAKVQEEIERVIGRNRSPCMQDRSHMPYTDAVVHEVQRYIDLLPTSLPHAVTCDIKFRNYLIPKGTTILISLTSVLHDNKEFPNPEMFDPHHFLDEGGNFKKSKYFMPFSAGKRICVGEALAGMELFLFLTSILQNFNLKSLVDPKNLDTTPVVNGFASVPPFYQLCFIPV
# Protocol: as §1, §2
# [2] = Mouse pharmacokinetic test; assay type: in vivo, ICR mice; details: plasma; for Tmax: read-out: Tmax
# How it was run: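 Male naive ICR mice (25–30 g, n=3 per route) received a single intravenous or oral dose, with feeding resumed 4 h post-dose. Blood was centrifuged at 4°C, and plasma was stored at -80°C until analysis.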
# LNCaP cells = experiment: Cell proliferation inhibition assay in LNCaP cells (0.2 nM DHT, CellTiter-Glo, 7 days); assay type: cell-based, human; details: Homo sapiens, LNCaP, 168 h
# How it was run: (§3)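 LNCaP and 22RV1 human prostate cancer cells, 3000 per well, exposed to graded compound for 7 days at 37°C, 5% CO2; LNCaP got 0.2 nM DHT 1 h after compound. Viability by CellTiter-Glo luminescence; IC50 from four-parameter variable-slope fit.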
# 22RV1 cells = experiment: Cell proliferation inhibition assay in 22RV1 cells (CellTiter-Glo, 7 days); assay type: cell-based, human; details: Homo sapiens, 22Rv1, 168 h
# How it was run: as §3
# [3] = probe substrate midazolam, read-out: CYPs 3A4 (Midazolam) (IC50)
# [4] = probe substrate testosterone, read-out: CYPs 3A4 (Testosterone) (IC50)
Compound,IC50 (CYP1A2),IC50 (CYP2C8),"IC50 [1, 3]","IC50 [1, 4]",IC50 (CYP2C19),IC50 (CYP2D6),IC50 (CYP2C9),"AUC(0-inf) ([2]; po, 30 mg/kg, PO-30mpk)","Cmax ([2]; po, 30 mg/kg, PO-30mpk)","half-life ([2]; po, 30 mg/kg, PO-30mpk)","Tmax ([2]; po, 30 mg/kg, PO-30mpk)",IC50 (LNCaP cells),"C0 ([2]; 0.5 mg/kg, IV-0.5mpk)","clearance ([2]; 0.5 mg/kg, IV-0.5mpk)","bioavailability ([2]; 30 mg/kg, PO-30mpk vs IV-0.5mpk)","AUC(0-inf) ([2]; iv, 0.5 mg/kg, IV-0.5mpk)","half-life ([2]; iv, 0.5 mg/kg, IV-0.5mpk)",IC50 (22RV1 cells)
"CC(C)(c1ccc(-c2cnc(OCc3ccnc(N4CC([S@@](C)(=N)=O)C4)n3)cn2)cc1)c1cc(Cl)c(OCCCl)c(C#N)c1 (single isomer, unassigned) [Compound 323B]",> 10 µM,> 10 µM,> 10 µM,> 10 µM,> 10 µM,> 10 µM,2.9 µM,1180 µg·h/mL,108 µg/mL,6.05 h,2.7 h,0.58 µM,–,–,–,–,–,–
CC(C)(c1ccc(-c2cnc(OCc3ccnc(N4CC(S(C)(=O)=O)C4)n3)cn2)cc1)c1cc(Cl)c(OCCCl)c(C#N)c1 [Compound 262],> 10 µM,> 10 µM,> 10 µM,> 10 µM,> 10 µM,> 10 µM,8.3 µM,648 µg·h/mL,74.7 µg/mL,5.2 h,2 h,0.34 µM,1.79 µg/mL,0.55 mL/min/kg,71.2%,15.2 µg·h/mL,10.8 h,0.14 µM
